# Earlier results as cited in US20130122099A1, “POLYETHYLENE GLYCOL-COATED SODIUM CARBONATE AS A PHARMACEUTICAL EXCIPIENT AND COMPOSITIONS PRODUCED FROM THE SAME” (priority 2008, published 2013).
# Conditions: not given
row,SMILES,pKa
1,O=C1CC2(CCCC2)CC(=O)N1CCCCN1CCN(c2ncccn2)CC1 [Buspirone],7.2
2,COc1cc(N)c(Cl)cc1C(=O)NC1CCN(CCCOc2ccc(F)cc2)CC1OC (stereo not shown) [Cisapride],7.83
3,CN1CCN(C(c2ccccc2)c2ccccc2)CC1 [Cyclizine],7.7
4,CCCCOc1cc(C(=O)NCCN(CC)CC)c2ccccc2n1 [Dibucaine],8.5
5,CN(C)CCC=C1c2ccccc2COc2ccccc21 [Doxepin],8.2
6,CNCCC(Oc1ccc(C(F)(F)F)cc1)c1ccccc1 (stereo not shown) [Fluoxetine],8.7
7,CN1C2CCCC1CC(NC(=O)c1nn(C)c3ccccc13)C2 (stereo not shown) [Granisetron],9.4
8,O=c1[nH]c(=O)n([C@H]2C[C@H](O)[C@@H](CO)O2)cc1I [Idoxuridine],8.3
9,CN1CCC(=C2c3ccccc3CC(=O)c3sccc32)CC1 [Ketotifen],8.75
10,CC(CCc1ccccc1)NCC(O)c1ccc(O)c(C(N)=O)c1 (stereo not shown) [Labetalol],8.7
11,CN1CCCCC1CCN1c2ccccc2Sc2ccc([S+](C)[O-])cc21 (stereo not shown) [Mesoridazine],8.2
12,CC(=O)/N=c1/sc(S(N)(=O)=O)nn1C [Methazolamide],7.3
13,CN1CCN2c3ccccc3Cc3ccccc3C2C1 (stereo not shown) [Mianserine],8.3
14,CN1CCN2c3ncccc3Cc3ccccc3C2C1 (stereo not shown) [Mirtazapine],7.7
15,C=CCN1CC[C@]23c4c5ccc(O)c4O[C@H]2C(=O)CC[C@@]3(O)[C@H]1C5 [Naloxone],7.82
16,OC(CNCC(O)C1CCc2cc(F)ccc2O1)C1CCc2cc(F)ccc2O1 (stereo not shown) [Nebivolol],8.6
17,COc1ccc2c(c1OC)C(=O)O[C@@H]2[C@H]1c2c(cc3c(c2OC)OCO3)CCN1C [Noscapine],7.8
18,Cc1nccn1CC1CCc2c(c3ccccc3n2C)C1=O (stereo not shown) [Ondansetron],7.7
19,CCN(CC)CCCC(C)Nc1cc(OC)cc2cccnc12 (stereo not shown) [Pamaquine],8.7
20,N#Cc1ccc2c(c1)N(CCCN1CCC(O)CC1)c1ccccc1S2 [Periciazine],8.3
21,OCCN1CCN(CCCN2c3ccccc3Sc3ccc(Cl)cc32)CC1 [Perphenazine],7.94
22,CC[C@@H]1C(=O)OC[C@@H]1Cc1cncn1C [Pilocarpine],6.6
23,Cc1ccc2c(c1)c1c3n2CCNC3CCC1 (stereo not shown) [Pirlindole],7.7
24,CN[C@H]1CC[C@@H](c2ccc(Cl)c(Cl)c2)c2ccccc21 [Sertraline],9.4
25,Cc1ccnc(NS(=O)(=O)c2ccc(N)cc2)n1 [Sulfamerazine],8.0
26,Cc1cc(C)nc(NS(=O)(=O)c2ccc(N)cc2)n1 [Sulfamethazine],7.4
27,CCN(CC)C(=O)N[C@H]1C[C@@H]2c3cccc4[nH]cc(c34)C[C@H]2N(C)C1 [Terguride],7.2
28,CC(C)(C)NC[C@H](O)COc1nsnc1N1CCOCC1 [Timolol],9.2

# Other lines, results leading:
row,pKa,SMILES
1,9.0,Clc1ccc2nsnc2c1NC1=NCCN1 [Tizanidine]
2,7.4,CC1(C)S[C@@H]2[C@H](NC(=O)[C@H](N)c3ccc(O)cc3)C(=O)N2[C@H]1C(=O)O [amoxicillin]
3,7.2,c1ccc(CN(CC2=NCCN2)c2ccccc2)cc1 [antazoline]
4,9.65,CN1CCN(C(c2ccccc2)c2ccc(Cl)cc2)CC1 (stereo not shown) [chlorcyclizine]
5,7.9,CN(C)CCOC(=O)C(c1ccccc1)C1(O)CCCC1 (stereo not shown) [cyclopentolate]
6,7.5,O=C1CN(/N=C/c2ccc(-c3ccc([N+](=O)[O-])cc3)o2)C(O)=N1 [dantrolene]
7,8.2,COc1cccc2c1C(=O)c1c(O)c3c(c(O)c1C2=O)C[C@@](O)(C(C)=O)C[C@@H]3O[C@H]1C[C@H](N)[C@H](O)[C@H](C)O1 [daunomycin]
8,9.3,CCC1(C)CC(=O)NC1=O (stereo not shown) [ethosuximide]
9,7.32,O=C1NCN(c2ccccc2)C12CCN(CCCC(c1ccc(F)cc1)c1ccc(F)cc1)CC2 [fluspirilene]
10,8.9,NS(=O)(=O)c1cc2c(cc1C(F)(F)F)NCNS2(=O)=O [hydroflumethiazide]
11,7.1,OCCOCCN1CCN(C(c2ccccc2)c2ccc(Cl)cc2)CC1 (stereo not shown) [hydroxyzine]
12,7.5,CCC[C@@H]1C[C@@H](C(=O)N[C@@H]([C@H]2O[C@H](SC)[C@H](O)[C@@H](O)[C@H]2O)[C@@H](C)O)N(C)C1 [lincomycin]
13,8.33,CCC1(c2ccccc2)NC(=O)N(C)C1=O (stereo not shown) [mephenytoin]
14,8.9,COc1ccc(CN(CCN(C)C)c2ccccn2)cc1 [mepyramine]
15,8.75,CCn1cc(C(=O)O)c(=O)c2cc(F)c(N3CCNCC3)cc21 [norfloxacin]
16,8.0,OC1(c2ccc(Cl)c(C(F)(F)F)c2)CCN(CCCC(c2ccc(F)cc2)c2ccc(F)cc2)CC1 [penfluridol]
17,9.2,CN1C(=O)CC(c2ccccc2)C1=O (stereo not shown) [phensuximide]

# Same assay, conditions: listed as daunorubicin
row,SMILES,pKa
1,COc1cccc2c1C(=O)c1c(O)c3c(c(O)c1C2=O)C[C@@](O)(C(C)=O)C[C@@H]3O[C@H]1C[C@H](N)[C@H](O)[C@H](C)O1 [daunomycin],8.25
